Experimental data from article PMC5701174 (Scientific Reports, 2017).

Target: T1, PlaA (rPlaA, Strep-PlaA) (Legionella pneumophila, UniProt A0A378KFD4)
T1 construct: gene NCTC12000_02489
Conditions: 37 °C, 3 h; 25 ng protein in 50 µl; without ProA

T1 sequence (A0A378KFD4 20-309 limits assumed): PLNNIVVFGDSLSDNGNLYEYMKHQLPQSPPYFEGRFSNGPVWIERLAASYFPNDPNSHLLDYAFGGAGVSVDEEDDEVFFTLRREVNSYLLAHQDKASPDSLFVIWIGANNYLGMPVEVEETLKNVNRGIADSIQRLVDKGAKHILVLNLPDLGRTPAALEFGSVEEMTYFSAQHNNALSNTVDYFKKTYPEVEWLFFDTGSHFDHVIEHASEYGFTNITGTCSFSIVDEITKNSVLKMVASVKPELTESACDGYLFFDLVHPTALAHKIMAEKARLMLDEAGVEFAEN

## CCCCCCCCCCCCCCCC(=O)OC[C@@H](O)COP(=O)([O-])OCC[N+](C)(C)C [LPC, 1-monopalmitoyllyso-phosphatidylcholine]
  free fatty acid quantification: rPlaA possessed lipase and LPLA activities, the latter especially towards LPG and LPC

## CCCCCCCCCCCCCCCC(=O)OC[C@@H](O)COP(=O)(O)OCC(O)CO (some centres unmarked) [LPG, 1-mono-palmitoyllysophosphatidylglycerol]
  free fatty acid quantification: rPlaA possessed lipase and LPLA activities, the latter especially towards LPG and LPC
